pIC50: −log10 of the molar value. Calls of active or inactive are those of the source. Unless noted, no cut-off for these calls is given here.

IC50, EC50 and AC50 data for four compounds are collected here from ChEMBL document CHEMBL1201862, “PubChem BioAssay data set” (2004).

Test [1] has as its target T1, Delta-type opioid receptor (Homo sapiens, UniProt P41143). Kind of test: SAR Analysis of Antagonists of the DOR Receptor using an Image-Based Assay - Set 2. [Related pubchem assays (depositor defined):AID1777, AID1785, AID1786, AID1966, AID2133, AID2136, AID2284, AID2285, AID2357]. It counts as functional.
Test [2] addresses T2, Mu-type opioid receptor (Homo sapiens, UniProt P35372). Kind of test: SAR Analysis of Antagonists of the MOR Receptor using an Image-Based Assay - Set 2. [Related pubchem assays (depositor defined):AID1777, AID1785, AID1786, AID1966, AID2133, AID2136, AID2284, AID2285, AID2420]. The test is classed as functional.
The target in test [3] is T3, Kappa-type opioid receptor (Homo sapiens, UniProt P41145). Kind of test: SAR analysis of small molecule agonists of the kappa opioid receptor via a luminescent beta-arrestin assay - Set 2. [Related pubchem assays (depositor defined):AID1777, AID1785, AID1786, AID1966, AID2133, AID2136, AID2284, AID449737]. The test is classed as functional.
Test [4] deals with T3, Kappa-type opioid receptor. Kind of test: SAR analysis of Antagonists of the Kappa Opioid Receptor (KOR) using an Image-Based Assay - Set 2. [Related pubchem assays (depositor defined):AID1777, AID1785, AID1786, AID1966, AID2133, AID2136, AID2284, AID2285, AID2348]. The test is classed as functional.
Test [5] deals with T1, Delta-type opioid receptor. In words: SAR Analysis of Agonists of the DOR Receptor using an Image-Based Assay - Set 2. [Related pubchem assays (depositor defined):AID1777, AID1785, AID1786, AID1966, AID2133, AID2136, AID2284, AID2285, AID2370]. The test is classed as functional.
Test [6] deals with T3, Kappa-type opioid receptor. In words: SAR analysis of Agonists of the Kappa Opioid Receptor (KOR) using an Image-Based Assay - Set 2. [Related pubchem assays (depositor defined):AID1777, AID1786, AID1966, AID2133, AID2136, AID2284, AID2285, AID2359]. It counts as functional.
In test [7] the target is T2, Mu-type opioid receptor. In words: SAR Analysis of Agonists of the MOR Receptor using an Image-Based Assay - Set 2. [Related pubchem assays (depositor defined):AID1777, AID1785, AID1786, AID1966, AID2133, AID2136, AID2284, AID2285, AID2352]. The test is classed as functional.
The target of test [8] is T4, COUP transcription factor 2 (Homo sapiens, UniProt P24468).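 Note: HEK293 cells transiently cotransfected with COUP-TFII expression vector and reporter; luciferase reporter luminescence driven by COUP-TFII from the pX2-168 reporter plasmid.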
T4 sequence (P24468 whole entry): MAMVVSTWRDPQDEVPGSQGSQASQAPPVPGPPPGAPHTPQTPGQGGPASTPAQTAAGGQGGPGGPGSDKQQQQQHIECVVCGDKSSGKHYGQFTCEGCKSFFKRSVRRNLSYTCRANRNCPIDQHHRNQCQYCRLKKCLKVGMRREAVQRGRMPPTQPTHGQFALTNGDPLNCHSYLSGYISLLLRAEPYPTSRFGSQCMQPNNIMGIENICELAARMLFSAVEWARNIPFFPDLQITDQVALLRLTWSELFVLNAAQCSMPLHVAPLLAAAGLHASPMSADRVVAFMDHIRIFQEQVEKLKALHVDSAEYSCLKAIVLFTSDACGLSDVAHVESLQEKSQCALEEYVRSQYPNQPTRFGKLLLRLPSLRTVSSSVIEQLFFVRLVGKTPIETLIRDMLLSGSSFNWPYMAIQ
Kind of test: Luminescence-based cell-based high throughput dose response assay to identify inhibitors of COUP-TFII (NR2F2). It counts as functional.

A short description of test [9]: Luminescence-based counterscreen assay for KLF5 inhibitors: dose response cell-based high throughput screening assay to identify cytotoxic compounds using the IEC-6 intestinal epithelial cell line. [Related pubchem assays: 1700 (Primary screen.), 1834 (Confirmation screen.), 1858 (Summary AID.), 1905 (Counterscreen.)]. It counts as functional. A general note: Counterscreens check selectivity or assay interference.

In test [10] the test system is HEK293. In words: cells. The conditions noted are these: Homo sapiens.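 Note: cells exposed to compound for 14 hours overnight before viability readout.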
Test [11] addresses Nucleotide-binding oligomerization domain-containing protein 1 (Homo sapiens, UniProt Q9Y239). In words: blockers of NOD1 pathway activity – revised, SAR follow-up (AID 2333). It counts as functional.
Test [12] deals with T5, Heat shock factor protein 1 (Mus musculus, UniProt P38532).
T5 sequence (P38532 whole entry): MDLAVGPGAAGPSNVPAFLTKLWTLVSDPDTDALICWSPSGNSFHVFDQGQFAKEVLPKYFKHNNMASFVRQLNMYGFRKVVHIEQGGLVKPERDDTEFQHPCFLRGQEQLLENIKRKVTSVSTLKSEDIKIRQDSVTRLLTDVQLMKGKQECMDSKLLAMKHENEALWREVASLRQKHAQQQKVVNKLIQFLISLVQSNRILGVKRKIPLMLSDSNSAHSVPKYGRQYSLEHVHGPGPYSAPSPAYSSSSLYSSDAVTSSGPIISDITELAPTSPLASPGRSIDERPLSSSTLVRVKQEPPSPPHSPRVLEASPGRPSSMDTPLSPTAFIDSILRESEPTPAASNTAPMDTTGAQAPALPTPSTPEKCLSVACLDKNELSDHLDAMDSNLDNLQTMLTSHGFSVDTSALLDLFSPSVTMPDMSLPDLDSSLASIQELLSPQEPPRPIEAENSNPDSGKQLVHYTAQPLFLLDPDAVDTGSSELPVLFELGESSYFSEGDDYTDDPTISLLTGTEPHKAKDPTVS
Kind of test: decrease of HSF1-responsive luciferase luminescence – cell-based, NIH3T3, dose retest, confirmation (AID 2382).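 Note: NIH3T3 fibroblasts with HSF1-driven luciferase reporter stressed by proteasome inhibitor MG132; luminescence from HSF1-driven luciferase expression after 8 hours of MG132 stress.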 The test is classed as functional.

In test [13] the target is Tumor necrosis factor (Homo sapiens, UniProt P01375). Kind of test: analog potency on TNFa NF-kB signaling – cell-based, revised, SAR follow-up (AID 2337). The test is classed as functional.
Test [14] concerns the target Induced myeloid leukemia cell differentiation protein Mcl-1 (Homo sapiens, UniProt Q07820). The test is classed as functional.
Test [15] concerns the target T1, Delta-type opioid receptor. Kind of test: HTS Image-Based Screen for Antagonists of the DOR Receptor. [Related pubchem assays (depositor defined):AID1777, AID1785, AID1786, AID2133]. The test is classed as functional.
Test [16] concerns the target T3, Kappa-type opioid receptor. It counts as functional.
For test [17], the target named is Voltage-gated inwardly rectifying potassium channel KCNH2 (Homo sapiens, UniProt Q12809). Kind of test: concentration-dependent hERG rescue from blockers – cell-based, thallium flux, dose response (AID 2121). It counts as ADME.
In test [18] the target is T1, Delta-type opioid receptor. Kind of test: HTS Image-Based Screen for Agonists of the DOR Receptor. [Related pubchem assays (depositor defined):AID1777, AID1786, AID2133]. The test is classed as functional.
Test [19] relates to Streptococcus. In words: GAS UMAA2166 growth inhibition – luminescence, BacTiterGlo, counter-screen for streptokinase expression inhibitor project, dose response (AID 1915).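 Note: potency for reduction of bacterial viability or growth.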 It counts as functional, organism-based.
Test [20] is described as follows: Trypanosoma cruzi growth suppression in host cells – NIH3T3 host cells, beta-gal luminescence, confirmation (AID 2044).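 Note: intracellular parasites grown in NIH/3T3 mouse fibroblasts as host cells; luminescent beta-galactosidase reporter signal from transgenic T. cruzi replicating inside host cells; inhibitors lower the luminescence signal.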 The test is classed as functional, cell-based.
Test [21] addresses T3, Kappa-type opioid receptor. The test is classed as functional. The source holds these as a separate data set.
In test [22] the target is Beta-galactosidase (Escherichia coli, UniProt Q8VNN2). It counts as functional.
Test [23] has as its target T2, Mu-type opioid receptor. Kind of test: HTS Image-Based Screen for Agonists of the MOR Receptor. [Related pubchem assays (depositor defined):AID1777, AID1785, AID1786, AID2133]. The test is classed as functional.
For test [24], the system named is Streptococcus sp. 'group A'. Kind of test: Streptococcus pyogenes SK(-)GAS viability under kanamycin – luminescence, BacTiterGlo, confirmation, counter-screen for streptokinase expression inhibitor project, dose response (AID 1900). The test is classed as functional, organism-based.
Test [25] in a line: Luminescence Cell-Based Dose Retest to Confirm Inhibitors of Cancer Stem Cells. [Related pubchem assays (depositor defined):AID2717, AID2721]. The test is classed as functional. Conditions: Homo sapiens.
Test [26] can be described thus: toxicity toward cultured mammalian cells – cell-based, plate reader, cherry-pick samples, cytotoxicity control, dose response (AID 504397). The test is classed as functional.

T1 sequence (P41143 whole entry): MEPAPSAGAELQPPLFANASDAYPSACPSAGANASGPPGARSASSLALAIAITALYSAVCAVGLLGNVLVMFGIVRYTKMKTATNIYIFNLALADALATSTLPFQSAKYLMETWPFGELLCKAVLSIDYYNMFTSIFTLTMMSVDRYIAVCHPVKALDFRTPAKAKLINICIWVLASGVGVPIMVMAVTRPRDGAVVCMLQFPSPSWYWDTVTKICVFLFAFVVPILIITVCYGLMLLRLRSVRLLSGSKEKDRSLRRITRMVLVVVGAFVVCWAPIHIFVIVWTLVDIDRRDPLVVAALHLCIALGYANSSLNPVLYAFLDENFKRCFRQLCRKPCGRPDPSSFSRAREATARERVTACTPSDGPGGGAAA
T2 sequence (P35372 whole entry): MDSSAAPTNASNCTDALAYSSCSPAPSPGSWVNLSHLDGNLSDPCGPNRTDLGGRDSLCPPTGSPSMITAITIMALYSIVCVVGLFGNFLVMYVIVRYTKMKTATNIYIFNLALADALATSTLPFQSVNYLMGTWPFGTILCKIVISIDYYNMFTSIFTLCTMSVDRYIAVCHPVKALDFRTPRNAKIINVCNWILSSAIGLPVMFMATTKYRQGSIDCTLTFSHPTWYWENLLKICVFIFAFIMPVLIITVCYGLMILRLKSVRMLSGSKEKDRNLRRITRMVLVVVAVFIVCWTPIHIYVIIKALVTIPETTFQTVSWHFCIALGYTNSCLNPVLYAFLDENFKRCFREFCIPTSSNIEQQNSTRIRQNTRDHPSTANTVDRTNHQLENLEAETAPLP
T3 sequence (P41145 whole entry): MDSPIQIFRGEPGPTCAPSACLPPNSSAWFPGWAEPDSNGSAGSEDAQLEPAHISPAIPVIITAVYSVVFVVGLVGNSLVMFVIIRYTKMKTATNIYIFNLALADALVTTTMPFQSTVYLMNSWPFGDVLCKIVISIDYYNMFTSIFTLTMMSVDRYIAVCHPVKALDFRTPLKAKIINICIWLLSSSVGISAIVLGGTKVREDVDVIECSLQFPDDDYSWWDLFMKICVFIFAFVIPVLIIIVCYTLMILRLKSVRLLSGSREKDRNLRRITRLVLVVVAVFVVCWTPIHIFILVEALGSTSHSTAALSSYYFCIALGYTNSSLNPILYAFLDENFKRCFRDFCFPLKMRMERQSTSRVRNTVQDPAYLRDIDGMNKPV
Sequence of Beta-galactosidase (Q8VNN2 whole entry): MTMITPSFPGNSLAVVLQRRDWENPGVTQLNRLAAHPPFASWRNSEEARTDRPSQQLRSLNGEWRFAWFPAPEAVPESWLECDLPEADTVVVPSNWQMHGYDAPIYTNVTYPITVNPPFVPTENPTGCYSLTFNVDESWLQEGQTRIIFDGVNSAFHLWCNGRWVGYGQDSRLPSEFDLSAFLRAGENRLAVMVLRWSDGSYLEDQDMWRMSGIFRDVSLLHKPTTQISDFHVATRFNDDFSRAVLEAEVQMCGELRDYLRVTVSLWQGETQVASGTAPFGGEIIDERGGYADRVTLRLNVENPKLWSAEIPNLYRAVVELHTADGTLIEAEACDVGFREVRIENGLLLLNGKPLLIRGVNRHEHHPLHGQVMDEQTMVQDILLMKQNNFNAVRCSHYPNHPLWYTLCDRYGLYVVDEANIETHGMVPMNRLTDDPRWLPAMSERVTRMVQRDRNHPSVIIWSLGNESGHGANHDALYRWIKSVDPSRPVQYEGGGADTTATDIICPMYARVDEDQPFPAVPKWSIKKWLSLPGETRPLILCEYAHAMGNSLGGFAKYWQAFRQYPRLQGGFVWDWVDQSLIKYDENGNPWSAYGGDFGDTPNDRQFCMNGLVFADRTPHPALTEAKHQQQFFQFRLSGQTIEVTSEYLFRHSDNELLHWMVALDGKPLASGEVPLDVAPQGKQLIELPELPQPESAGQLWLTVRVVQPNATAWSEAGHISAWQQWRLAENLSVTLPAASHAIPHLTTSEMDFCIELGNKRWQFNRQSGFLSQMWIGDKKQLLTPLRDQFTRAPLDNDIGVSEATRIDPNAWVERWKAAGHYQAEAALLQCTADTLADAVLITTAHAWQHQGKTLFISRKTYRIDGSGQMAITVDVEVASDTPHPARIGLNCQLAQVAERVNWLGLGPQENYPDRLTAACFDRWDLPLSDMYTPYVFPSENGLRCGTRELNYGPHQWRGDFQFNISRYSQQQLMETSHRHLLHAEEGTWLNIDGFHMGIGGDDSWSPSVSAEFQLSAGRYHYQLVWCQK
Sequence of Nucleotide-binding oligomerization domain-containing protein 1 (Q9Y239 whole entry, the tested form may be a part): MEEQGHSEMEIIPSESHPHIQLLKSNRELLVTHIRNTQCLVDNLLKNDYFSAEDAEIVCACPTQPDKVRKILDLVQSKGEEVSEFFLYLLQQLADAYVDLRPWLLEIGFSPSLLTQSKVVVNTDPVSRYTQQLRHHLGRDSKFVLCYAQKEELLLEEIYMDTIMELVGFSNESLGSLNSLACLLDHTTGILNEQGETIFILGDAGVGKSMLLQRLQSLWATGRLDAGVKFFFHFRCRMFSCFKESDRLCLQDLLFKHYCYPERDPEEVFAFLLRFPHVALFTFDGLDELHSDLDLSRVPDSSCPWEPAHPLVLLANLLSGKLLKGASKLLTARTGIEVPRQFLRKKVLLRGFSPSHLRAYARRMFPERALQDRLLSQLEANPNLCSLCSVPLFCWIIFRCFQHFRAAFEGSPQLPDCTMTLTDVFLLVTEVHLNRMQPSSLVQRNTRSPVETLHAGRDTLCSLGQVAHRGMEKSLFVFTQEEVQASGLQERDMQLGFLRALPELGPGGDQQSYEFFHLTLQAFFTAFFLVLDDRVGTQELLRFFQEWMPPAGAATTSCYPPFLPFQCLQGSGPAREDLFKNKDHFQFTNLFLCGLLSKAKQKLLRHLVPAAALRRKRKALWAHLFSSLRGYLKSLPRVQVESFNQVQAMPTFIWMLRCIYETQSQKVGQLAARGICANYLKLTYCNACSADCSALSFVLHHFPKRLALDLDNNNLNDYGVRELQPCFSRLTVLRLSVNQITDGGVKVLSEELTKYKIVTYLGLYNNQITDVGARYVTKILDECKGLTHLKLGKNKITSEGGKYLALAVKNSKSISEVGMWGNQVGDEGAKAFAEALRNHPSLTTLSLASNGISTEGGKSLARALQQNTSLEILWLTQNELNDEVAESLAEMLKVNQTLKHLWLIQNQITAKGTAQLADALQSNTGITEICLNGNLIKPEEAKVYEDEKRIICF
Sequence of Tumor necrosis factor (P01375 whole entry): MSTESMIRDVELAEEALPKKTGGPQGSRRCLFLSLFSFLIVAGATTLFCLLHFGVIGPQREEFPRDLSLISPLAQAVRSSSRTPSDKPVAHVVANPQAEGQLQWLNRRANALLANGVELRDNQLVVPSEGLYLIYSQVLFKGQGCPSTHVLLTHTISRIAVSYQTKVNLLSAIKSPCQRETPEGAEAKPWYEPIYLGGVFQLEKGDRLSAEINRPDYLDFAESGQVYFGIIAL
Sequence of Voltage-gated inwardly rectifying potassium channel KCNH2 (Q12809 whole entry): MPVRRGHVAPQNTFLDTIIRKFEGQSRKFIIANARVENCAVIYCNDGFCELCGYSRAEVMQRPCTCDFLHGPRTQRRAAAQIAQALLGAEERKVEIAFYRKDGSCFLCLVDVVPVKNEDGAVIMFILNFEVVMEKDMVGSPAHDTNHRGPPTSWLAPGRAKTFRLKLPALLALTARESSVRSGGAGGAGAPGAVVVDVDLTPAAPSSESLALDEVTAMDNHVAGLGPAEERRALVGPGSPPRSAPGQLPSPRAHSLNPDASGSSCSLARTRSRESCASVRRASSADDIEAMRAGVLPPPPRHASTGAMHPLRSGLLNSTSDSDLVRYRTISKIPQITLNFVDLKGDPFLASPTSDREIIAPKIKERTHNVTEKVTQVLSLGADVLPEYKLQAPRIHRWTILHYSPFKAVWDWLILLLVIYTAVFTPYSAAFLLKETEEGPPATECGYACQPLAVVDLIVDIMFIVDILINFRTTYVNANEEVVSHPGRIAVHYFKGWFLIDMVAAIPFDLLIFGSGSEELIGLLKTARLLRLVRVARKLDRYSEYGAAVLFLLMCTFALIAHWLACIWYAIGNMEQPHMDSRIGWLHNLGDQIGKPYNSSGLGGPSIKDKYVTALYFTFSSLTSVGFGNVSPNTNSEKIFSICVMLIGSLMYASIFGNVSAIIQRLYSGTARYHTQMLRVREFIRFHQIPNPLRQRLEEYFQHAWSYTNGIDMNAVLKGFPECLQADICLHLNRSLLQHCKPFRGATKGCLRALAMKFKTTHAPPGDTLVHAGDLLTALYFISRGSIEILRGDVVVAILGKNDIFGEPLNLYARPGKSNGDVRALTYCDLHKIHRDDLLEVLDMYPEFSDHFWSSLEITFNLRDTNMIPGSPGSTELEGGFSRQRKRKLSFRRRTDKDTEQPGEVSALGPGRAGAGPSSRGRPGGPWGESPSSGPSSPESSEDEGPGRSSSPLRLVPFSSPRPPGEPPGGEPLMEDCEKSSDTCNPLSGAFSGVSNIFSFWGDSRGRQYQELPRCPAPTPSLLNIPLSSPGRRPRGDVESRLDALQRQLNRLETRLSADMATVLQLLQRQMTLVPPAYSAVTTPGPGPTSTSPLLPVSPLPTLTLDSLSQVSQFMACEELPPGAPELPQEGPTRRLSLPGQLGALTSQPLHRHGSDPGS
Sequence of Induced myeloid leukemia cell differentiation protein Mcl-1 (Q07820 whole entry): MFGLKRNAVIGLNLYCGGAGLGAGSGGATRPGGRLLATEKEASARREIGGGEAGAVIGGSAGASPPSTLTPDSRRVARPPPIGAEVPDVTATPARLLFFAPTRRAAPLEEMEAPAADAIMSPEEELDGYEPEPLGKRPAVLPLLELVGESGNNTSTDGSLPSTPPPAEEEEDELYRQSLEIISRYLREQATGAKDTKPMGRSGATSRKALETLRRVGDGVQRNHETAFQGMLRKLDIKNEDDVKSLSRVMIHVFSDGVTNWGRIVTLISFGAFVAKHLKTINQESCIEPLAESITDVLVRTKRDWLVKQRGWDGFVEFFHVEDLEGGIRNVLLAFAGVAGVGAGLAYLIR

As to `CCc1ccc(S(=O)(=O)NCc2ccc(C(=O)NCCN(Cc3ccccc3)C(C)C)cc2)cc1`, the IC50 – broadly, the point on the concentration scale where inhibition reaches its midpoint – in [1] was > 32 µM (inactive); in test [2], > 32 µM (inactive); in test [4], 2.55 µM (active). Also, the EC50 (in general, the concentration giving half of the maximal effect) in [3] is > 20 µM (inactive); in test [5] it was > 32 µM (inactive); in [6], > 32 µM (inactive); in test [7] it was > 32 µM (inactive).

On to `COC(=O)c1ccc2nc(Nc3nc4ccc(F)cc4s3)sc2c1`, for which the IC50 in test [8] was 34 µM (inactive); in test [9], > 39.8 µM (not active); in [10], > 20 µM (inactive); in [11], 1.91 µM (active); in [13] it was 0.462 µM (active); in [14] it was 1.11 µM (active). Besides, the EC50 in test [12] is < 0.16 µM (active).

In the case of `COc1ccc(/C=C2\SC(=N)N(c3nccs3)C2=O)cc1OC`, the IC50 in test [15] is > 32 µM (inactive); in [21], 7.22 µM (active). Moreover, in test [16], the pIC50 (in general, −log10 of the IC50, conventionally taken in molar units) is < 4.49. The EC50 in test [17] was 84.7 µM (active); in test [18], > 32 µM (inactive); in test [19], 3.61 µM (active); in test [20] it was 3.66 µM (active); in test [22], > 31.5 µM (inactive); in [23], > 32 µM (inactive). For the same compound, in test [24], the EC50 is 1.69 µM (active).

Take `c1ccc(CNc2nc(N3CCN(Cc4ccccc4)CC3)nc3ccccc23)cc1`: the AC50 (usually the concentration giving half of the maximal activity seen) in test [25] was 3.43 µM (active); in test [26] it was 66.2 µM (active). Further, the EC50 in test [12] was > 195 µM (not active).
